Measured values from patent US7285564B2, “Substituted 4-amino-1-(pyridylmethyl)piperidine and related compounds” (Theravance, Inc., priority 2002, dated 2007).

Target: T1, hM3 muscarinic receptor subtype (Homo sapiens, UniProt P20309)
T1 construct: expressed in transfected cells; membranes prepared
Assay: Radioligand binding assay, hM3 relative to hM2
Details: ratio of Ki values from radioligand displacement
Method: CHO (Chinese hamster ovary) cell lines stably expressing cloned human hM1, hM2, hM3 and hM4 muscarinic receptor subtypes, respectively, were grown to near confluency in medium consisting of HAM's F-12 supplemented with 10% FBS (Fetal Bovine Serum) and 250 μg/mL Geneticin. The cells were grown in a 5% CO2, 37° C. incubator and lifted with dPBS+2 mM EDTA. Cells were collected by 5 minute centrifugation at 650×g, and cell pellets were either stored frozen at −80° C. or membranes were prepared immediately. For membrane preparation, cell pellets were resuspended in lysis buffer and homogenized with a Polytron PT-2100 tissue disrupter (Kinematica AG; 20 seconds×2 bursts). Crude membranes were centrifuged at 40,000×g for 15 minutes at 4° C. […] Protein concentration of the membrane suspension was determined by the method of Lowry, O. et al., (1951) […]: 193, 265. […]
Radioligand binding assays were performed in 96-well microtiter plates in a total assay volume of 100 μL. […] Filter plates were rinsed three times with wash buffer (10 mM HEPES) to remove unbound radioactivity. […] The plates were then counted in a PerkinElmer Topcount liquid scintillation counter (PerkinElmer Inc., Wellesley, Mass.). Binding data were analyzed by nonlinear regression analysis with the GraphPad Prism Software package (GraphPad Software, Inc., San Diego, Calif.) using the one-site competition model. […]

T1 sequence (P20309 whole entry): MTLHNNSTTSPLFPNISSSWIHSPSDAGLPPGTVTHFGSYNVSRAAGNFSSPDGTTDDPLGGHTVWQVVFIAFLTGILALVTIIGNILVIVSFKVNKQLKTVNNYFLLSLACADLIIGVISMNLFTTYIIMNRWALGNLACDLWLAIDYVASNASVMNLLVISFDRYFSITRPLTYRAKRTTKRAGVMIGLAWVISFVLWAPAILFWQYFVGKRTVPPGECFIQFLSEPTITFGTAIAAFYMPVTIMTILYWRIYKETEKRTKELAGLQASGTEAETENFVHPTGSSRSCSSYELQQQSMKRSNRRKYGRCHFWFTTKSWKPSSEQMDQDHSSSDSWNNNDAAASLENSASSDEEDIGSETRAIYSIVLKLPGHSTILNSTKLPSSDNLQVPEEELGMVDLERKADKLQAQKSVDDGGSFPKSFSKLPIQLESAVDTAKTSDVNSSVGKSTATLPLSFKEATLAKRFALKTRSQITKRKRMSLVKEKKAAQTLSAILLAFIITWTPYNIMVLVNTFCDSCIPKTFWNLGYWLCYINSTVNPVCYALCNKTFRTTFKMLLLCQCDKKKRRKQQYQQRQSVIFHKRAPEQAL

- hM3/hM2 ratio: greater than 40
SMILES: COc1ccncc1CN1CCC(N(CCCCCCCN2CC[C@@H](C(C(N)=O)(c3ccccc3)c3ccccc3)C2)C(C)C)CC1 [Example 1]
